This series can be described thus: XTT cytotoxicity assay according to ISO 10993. As to conditions: mouse. An excerpt:
A larger scale batch (100 Liter) of Formulation E was further evaluated in more detail with an XTT test according to ISO 10993, published by the International Organization for Standardization: “Biological Evaluation of Medical Devices”, Part 1: “Evaluation and testing within a risk management process”, 2018, Part 5: “Tests for in vitro cytotoxicity”, 2009 using a valuated method from the ICCR-Roßdorf GmbH (Germany) and a Xenometrix test kit. With the XTT assay, cell proliferation and viability as well as the mitochondrial metabolic competence of the cells after treatment with a test item is determined […]. The XTT test is based on the cleavage of the yellow tetrazolium salt XTT [_(sodium 3′-(1-phenylaminocarbonyl)-(3,4-tetrazolium)-bis-(4-methoxy-6-nitro)-benzenesulfonic acid hydrate)] to form an orange water soluble formazan dye by dehydrogenase activity in active mitochondria. This method was first described 1988 by SCUDIERO et al.
In brief, the potential cytotoxic effect was evaluated with a dilution series of formulation E in complete medium [RPMI 1640 medium (including glutamax), supplemented with 10% FCS, 1 mM sodium pyruvate, and 100 units/mL penicillin, and 100 μg/mL streptomycin] resulting in the following end concentrations 39.1 μg/mL, 78.1 μg/mL, 156 μg/mL, 313 μg/mL, 625 μg/mL, 1250 μg/mL; 2500 μg/mL, 5000 μg/mL. Subsequently the effect of the solution was examined after 24±1 h treatment time on prior prepared mouse L929 cell line (supplied by DSMZ, 38124 Braunschweig, Germany). In parallel several controls were tested as well:
Medium Control=Complete medium; Solvent control=Complete medium, Positive control=Sodium dodecyl sulfate (SDS; purity: ≥99%); Solvent=deionized water, diluted with complete medium to a ratio of 1:10 (v/v). The positive control was tested in 8 concentrations in a range from 3.1-250 μg/mL. Solvent control for the positive control=Complete medium and 10% (v/v) deionized water.
At the end of the incubation period, 50 μL of the XTT labelling mixture (Xenometrix, Allschwil, Switzerland) were added to each well. The cells were incubated and subsequently transferred to a microplate reader and the absorbance values were determined (Versamax® Molecular Devices, software SoftMax Pro Enterprise (version 4.7.1)) at 450 nm (reference wavelength 690 nm). A decrease in number of living cells results in a decrease in the overall activity of mitochondrial dehydrogenases in the sample. This decrease directly correlates to the amount of orange formazan formed, as monitored by the absorbance. The relative absorbance (=viability) as compared to the solvent control is calculated using this formula: […]
To calculate the concentration of toxicant required to reduce the relative absorbance to 50% of the solvent control (XTT50) the following formula is used:
[formula] • a) Conc.>50=max. measured concentration with the % of solvent control >50% • b) Conc.<50=min. measured concentration with the % of solvent control <50% • c) %>50=relative absorbance at a) in % • d) %<50=relative absorbance at b) in %
The lower the XTT50 value, the higher is the cytotoxic potential of the test item.
(Tetrazolium dyes change colour on reduction, which living cells bring about.)

As for `CCCCCCCCCCCCOS(=O)(=O)[O-].[Na+]` [SDS, Sodium dodecyl sulfate], the viability (usually the share of living cells, or the viability signal relative to a control) at 3.1 μg/mL was 96.9%; the viability at 6.3 μg/mL worked out at 97.2%; the viability at 12.5 μg/mL came out at 99.9%; the viability at 25 μg/mL amounted to 91.7%. This molecule yielded a viability at 50 μg/mL of 85%, a viability at 100 μg/mL of 5.8%, a viability at 125 μg/mL of 1.63% and a viability at 250 μg/mL of 0.16%.

For the origin of these results see patent publication US12527327B2, “High hyaluronate multi-purpose disinfection solutions for ophthalmic applications” (CIS BIOPHARMA AG, priority 2019, dated 2026).
